Experimental data as given in patent US20240132431A1, “METHOD FOR ALKYLATING ACIDIC FUNCTIONAL GROUP” (Chugai Seiyaku Kabushiki Kaisha, priority 2021, published 2024).

Molecular target: T1, Bcl-2 protein (Recombinant Human Bcl-2 Protein) (Homo sapiens, UniProt P10415)
T1 construct: purchased Novus NBP2-34889
Experiment: Binding evaluation of mixture library compounds to Bcl-2 using AS-MS (affinity selection mass spectrometry)
Conditions: for ASMS ratio (%) n = 1 / ASMS ratio (%) n = 2: AS-MS, Bcl-2, ASMS Ratio(%)=(A−C)/B×100; for ASMS ratio (%) n = 1: replicate n = 1; for ASMS ratio (%) n = 2: replicate n = 2
Method in brief: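 ASMS Ratio (%) was calculated as (A−C)/B×100, where A is the protein sample after SEC, B the protein-free sample without SEC and C the protein-free sample after SEC. Each compound was at […] in a 1200-member pool with 20 μM Bcl-2, incubated 1 h at 23° C.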

T1 sequence (P10415 whole entry): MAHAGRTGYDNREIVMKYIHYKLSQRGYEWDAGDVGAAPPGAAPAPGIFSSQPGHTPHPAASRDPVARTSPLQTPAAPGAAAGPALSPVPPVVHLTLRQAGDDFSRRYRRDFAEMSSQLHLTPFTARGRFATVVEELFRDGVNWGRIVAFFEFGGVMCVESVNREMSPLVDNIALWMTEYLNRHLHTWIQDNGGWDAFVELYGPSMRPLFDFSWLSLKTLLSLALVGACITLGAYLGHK

SMILES: CCOc1cccc(-c2ccc(C(C)N3CCN(c4ccc(C(=O)NCC56CC7CC(CC(C7)C5)C6)cc4)CC3)c(F)c2)c1 (stereo not drawn) [B1A099-01, N-(1-Adamantylmethyl)-4-[4-[1-[4-(3-ethoxyphenyl)-2-fluorophenyl]ethyl]piperazin-1-yl]benzamide]
- ASMS ratio (%) n = 1 (mixture of 1200 compounds): 0.9%
- ASMS ratio (%) n = 2 (mixture of 1200 compounds): −0.9%

SMILES: CCOc1cncc(-c2cc(CN3CCN(c4ccc(C(=O)NS(=O)(=O)CCC(F)(F)F)cc4)CC3)cc(OC(C)C)c2)c1 [B2N058-01, 4-[4-[[3-(5-Ethoxypyridin-3-yl)-5-propan-2-yloxyphenyl]methyl]piperazin-1-yl]-N-(3,3,3-trifluoropropylsulfonyl)benzamide]
- ASMS ratio (%) (n = 1): 0.0%
- ASMS ratio (%) (n = 2): 0.0%

SMILES: CCOc1cccc(-c2ccccc2CCC(=O)N2CCN(c3ccc(C(=O)NS(=O)(=O)c4ccc(NCCSc5ccccc5)c(C(F)(F)F)c4)nn3)CC2)c1 [B2R011-01, 6-[4-[3-[2-(3-Ethoxyphenyl)phenyl]propanoyl]piperazin-1-yl]-N-[4-(2-phenylsulfanylethylamino)-3-(trifluoromethyl)phenyl]sulfonylpyridazine-3-carboxamide]
- ASMS ratio (%) (n = 1): 17.7%
- ASMS ratio (%) (n = 2): −1.3%

SMILES: CCOc1cncc(-c2ccccc2CN2CCN(c3ccc(C(=O)N(CC)CC)nn3)CC2)c1 [B4J072-01, 6-[4-[[2-(5-Ethoxypyridin-3-yl)phenyl]methyl]piperazin-1-yl]-N,N-diethylpyridazine-3-carboxamide]
- ASMS ratio (%) n = 1 (mixture library): −1.6%
- ASMS ratio (%) n = 2 (mixture library): 0.9%

SMILES: CCOc1cncc(-c2cnn(-c3cc(C(=O)N4CCN(c5ccc(C(=O)NS(=O)(=O)c6ccc(NCCSc7ccccc7)c(C(F)(F)F)c6)cc5)CC4)cc(C(F)(F)F)c3)c2)c1 [B2R044-01, 4-[4-[3-[4-(5-Ethoxypyridin-3-yl)pyrazol-1-yl]-5-(trifluoromethyl)benzoyl]piperazin-1-yl]-N-[4-(2-phenylsulfanylethylamino)-3-(trifluoromethyl)phenyl]sulfonylbenzamide]
- ASMS ratio (%) (n = 1): −3.7%
- ASMS ratio (%) (n = 2): −4.1%

SMILES: CCOc1cncc(-c2ccc(C(C)N3CCN(c4ccc(C(=O)NCC(F)(F)F)cc4)CC3)c(F)c2)c1 (stereo not drawn) [B1K100-01, 4-[4-[1-[4-(5-Ethoxypyridin-3-yl)-2-fluorophenyl]ethyl]piperazin-1-yl]-N-(2,2,2-trifluoroethyl)benzamide]
- ASMS ratio (%) n = 1 (mixture of 1200 compounds): 0.0%
- ASMS ratio (%) n = 2 (mixture of 1200 compounds): 0.0%

SMILES: CCOc1cncc(-c2cc(C(=O)N3CCN(c4ccc(C(=O)NS(=O)(=O)CC56CC7CC(CC(C7)C5)C6)cc4)CC3)cc(C(C)(C)C)c2)c1 [B2A038-01, N-(1-Adamantylmethylsulfonyl)-4-[4-[3-tert-butyl-5-(5-ethoxypyridin-3-yl)benzoyl]piperazin-1-yl]benzamide]
- ASMS ratio (%) n = 1 (mixture library): 1.8%
- ASMS ratio (%) n = 2 (mixture library): −3.5%

SMILES: CCOc1cncc(-c2cc(OC)c(CN3CCN(c4ccc(C(=O)NS(=O)(=O)CC56CC7CC(CC(C7)C5)C6)cc4)CC3)c(OC)c2)c1 [B2A060-01, N-(1-Adamantylmethylsulfonyl)-4-[4-[[4-(5-ethoxypyridin-3-yl)-2,6-dimethoxyphenyl]methyl]piperazin-1-yl]benzamide]
- ASMS ratio (%) n = 1 (mixture library): 0.0%
- ASMS ratio (%) n = 2 (mixture library): 0.0%

SMILES: CCOc1cncc(-c2cc(C(=O)N3CCN(c4ccc(C(=O)NCC(F)(F)F)cc4)CC3)cc(C(C)(C)C)c2)c1 [B1K038-01, 4-[4-[3-tert-Butyl-5-(5-ethoxypyridin-3-yl)benzoyl]piperazin-1-yl]-N-(2,2,2-trifluoroethyl)benzamide]
- ASMS ratio (%) n = 1 (mixture of 1200 compounds): 0.6%
- ASMS ratio (%) n = 2 (mixture of 1200 compounds): −1.8%
